T1: Thymidine kinase, cytosolic (Homo sapiens) (UniProt P04183)
T1 sequence (whole entry): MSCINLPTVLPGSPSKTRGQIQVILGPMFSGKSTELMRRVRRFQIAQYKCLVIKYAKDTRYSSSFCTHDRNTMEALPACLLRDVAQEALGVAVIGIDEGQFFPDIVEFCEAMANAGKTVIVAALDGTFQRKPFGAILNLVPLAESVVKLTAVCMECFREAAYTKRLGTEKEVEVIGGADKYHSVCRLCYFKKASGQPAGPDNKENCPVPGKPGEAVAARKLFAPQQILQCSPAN

T2: Thymidine kinase (Ureaplasma parvum serovar 3 (strain ATCC 700970)) (UniProt Q9PPP5)
T2 sequence (whole entry): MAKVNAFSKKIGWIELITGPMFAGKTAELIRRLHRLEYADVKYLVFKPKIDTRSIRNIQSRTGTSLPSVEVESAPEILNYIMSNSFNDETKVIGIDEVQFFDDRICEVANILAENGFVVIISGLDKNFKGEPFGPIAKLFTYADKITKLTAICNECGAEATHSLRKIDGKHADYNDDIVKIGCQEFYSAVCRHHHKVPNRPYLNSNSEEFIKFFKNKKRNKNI

T3: Thymidine kinase, cytosolic (Homo sapiens, UniProt P04183)
T3 sequence (P04183 whole entry): T1 sequence (whole entry)

T4: Thymidine kinase (Ureaplasma parvum serovar 3 (strain ATCC 700970), UniProt Q9PPP5)
T4 sequence (Q9PPP5 whole entry): T2 sequence (whole entry)

B1: Thymidine kinase, cytosolic (Homo sapiens), P04183 (protein)
chain: T1 sequence (whole entry)
B2: Thymidine kinase (Ureaplasma parvum serovar 3 (strain ATCC 700970)), Q9PPP5 (protein)
chain: T2 sequence (whole entry)

Key:
[1] = target: T1, Thymidine kinase, cytosolic (Homo sapiens); assay: Ratio of Vmax to Km for human TK1 relative to […]
[2] = target: T2, Thymidine kinase (Ureaplasma parvum serovar 3 (strain ATCC 700970)); assay: Ratio of Vmax to Km for Ureaplasma parvum thymidine kinase relative to dThd
[3] = target: T2, Thymidine kinase (Ureaplasma parvum serovar 3 (strain ATCC 700970)); assay: Activity of Ureaplasma parvum thymidine kinase relative to dThd
[4] = target: T3, Thymidine kinase, cytosolic; assay: Inhibition of human TK1 by liquid scintillation counting
[5] = target: T1, Thymidine kinase, cytosolic (Homo sapiens); assay: Activity of human TK1 relative to ATP; parameters: concentration or dose not given beside the values
Thymidine kinase = target: T4, Thymidine kinase; assay: Inhibition of Ureaplasma parvum thymidine kinase by liquid scintillation counting
[6] = substrate: Cc1cn([C@H]2C[C@H](n3cc(C(C)(C)C)nn3)[C@@H](CO)O2)c(=O)[nH]c1=O; conditions: Homo sapiens
[7] = substrate: Cc1cn([C@H]2C[C@H](N=[N+]=[N-])[C@@H](CO)O2)c(=O)[nH]c1=O; conditions: Homo sapiens
[8] = substrate: Cc1cn([C@H]2C[C@H](n3cc(CCc4ccccc4)nn3)[C@@H](CO)O2)c(=O)[nH]c1=O; conditions: Homo sapiens
[9] = substrate: Cc1cn([C@H]2C[C@H](n3cc(-c4ccccc4)nn3)[C@@H](CO)O2)c(=O)[nH]c1=O; conditions: Homo sapiens
[10] = substrate: CCCc1cn([C@H]2C[C@H](n3cc(C)c(=O)[nH]c3=O)O[C@@H]2CO)nn1; conditions: Homo sapiens
[11] = substrate: Cc1cn([C@H]2C[C@H](n3cc(Cc4ccccc4)nn3)[C@@H](CO)O2)c(=O)[nH]c1=O; conditions: Homo sapiens
[12] = substrate: CC(=O)OCc1cn([C@H]2C[C@H](n3cc(C)c(=O)[nH]c3=O)O[C@@H]2CO)nn1; conditions: Homo sapiens
[13] = substrate: CCCCCc1cn([C@H]2C[C@H](n3cc(C)c(=O)[nH]c3=O)O[C@@H]2CO)nn1; conditions: Homo sapiens
[14] = substrate: Cc1cn([C@H]2C[C@H](n3cc(-c4ccccn4)nn3)[C@@H](CO)O2)c(=O)[nH]c1=O; conditions: Homo sapiens
[15] = substrate: Cc1cn([C@H]2C[C@H](n3cc(C(C)(C)C)nn3)[C@@H](CO)O2)c(=O)[nH]c1=O; conditions: Ureaplasma parvum
[16] = substrate: Cc1cn([C@H]2C[C@H](N=[N+]=[N-])[C@@H](CO)O2)c(=O)[nH]c1=O; conditions: Ureaplasma parvum
[17] = substrate: Cc1cn([C@H]2C[C@H](n3cc(CCc4ccccc4)nn3)[C@@H](CO)O2)c(=O)[nH]c1=O; conditions: Ureaplasma parvum
[18] = substrate: Cc1cn([C@H]2C[C@H](n3cc(-c4ccccc4)nn3)[C@@H](CO)O2)c(=O)[nH]c1=O; conditions: Ureaplasma parvum
[19] = substrate: CCCc1cn([C@H]2C[C@H](n3cc(C)c(=O)[nH]c3=O)O[C@@H]2CO)nn1; conditions: Ureaplasma parvum
[20] = substrate: Cc1cn([C@H]2C[C@H](n3cc(Cc4ccccc4)nn3)[C@@H](CO)O2)c(=O)[nH]c1=O; conditions: Ureaplasma parvum
[21] = substrate: CC(=O)OCc1cn([C@H]2C[C@H](n3cc(C)c(=O)[nH]c3=O)O[C@@H]2CO)nn1; conditions: Ureaplasma parvum
[22] = substrate: CCCCCc1cn([C@H]2C[C@H](n3cc(C)c(=O)[nH]c3=O)O[C@@H]2CO)nn1; conditions: Ureaplasma parvum
[23] = substrate: Cc1cn([C@H]2C[C@H](n3cc(-c4ccccn4)nn3)[C@@H](CO)O2)c(=O)[nH]c1=O; conditions: Ureaplasma parvum

Row | Molecule | Activity [1] | Activity [2] | Activity [3] | IC50 [4] | Activity [5] | further results
1 | Cc1cn([C@H]2C[C@H](n3cc(-c4ccccn4)nn3)[C@@H](CO)O2)c(=O)[nH]c1=O | 0.5% | 1.1% | 7.1% | 53 µM | 3.1% | 
2 | Cc1cn([C@H]2C[C@H](N=[N+]=[N-])[C@@H](CO)O2)c(=O)[nH]c1=O | 50% | 43% | 27.8% |  | 47.3% | 
3 | CCCCCc1cn([C@H]2C[C@H](n3cc(C)c(=O)[nH]c3=O)O[C@@H]2CO)nn1 | 0.3% | 1.6% | 7.2% |  | 1.9% | 
4 | Cc1cn([C@H]2C[C@H](n3cc(CCO)nn3)[C@@H](CO)O2)c(=O)[nH]c1=O |  |  | 4.1% |  | 2.2% | 
5 | Cc1cn([C@H]2C[C@H](n3cc(CCc4ccccc4)nn3)[C@@H](CO)O2)c(=O)[nH]c1=O | 0.08% | 0.8% | 12.3% | 60 µM | 2.4% | 
6 | COCc1cn([C@H]2C[C@H](n3cc(C)c(=O)[nH]c3=O)O[C@@H]2CO)nn1 |  |  | 1.6% |  | 1.3% | 
7 | Cc1cn([C@H]2C[C@H](n3cc(-c4ccccc4)nn3)[C@@H](CO)O2)c(=O)[nH]c1=O | 0.2% | 0.7% | 5.5% | 99 µM | 2.1% | 
8 | Cc1cn([C@H]2C[C@H](n3cc(C(C)(C)C)nn3)[C@@H](CO)O2)c(=O)[nH]c1=O | 0.07% | 0.15% | 4.7% |  | 2.2% | 
9 | CCCc1cn([C@H]2C[C@H](n3cc(C)c(=O)[nH]c3=O)O[C@@H]2CO)nn1 | 0.1% | 0.5% | 6.5% |  | 2.7% | 
10 | CC(=O)OCc1cn([C@H]2C[C@H](n3cc(C)c(=O)[nH]c3=O)O[C@@H]2CO)nn1 | 0.1% | 0.6% | 3.9% |  | 2.4% | 
11 | Cc1cn([C@H]2C[C@H](n3cc(-c4ccc(F)cc4)nn3)[C@@H](CO)O2)c(=O)[nH]c1=O | 1.1% |  | 13.7% | 44 µM | 2.6% | IC50 (Thymidine kinase): 71 µM
12 | Cc1cn([C@H]2C[C@H](n3cc(Cc4ccccc4)nn3)[C@@H](CO)O2)c(=O)[nH]c1=O | 0.1% | 0.8% | 11.6% | 78 µM | 4.8% | IC50 (Thymidine kinase): 73 µM
13 | B1 |  |  |  |  |  | Km [6]: 243 µM; Km [7]: 3.5 µM; Km [8]: 204 µM; Km [9]: 57 µM; Km [10]: 138 µM; Km [11]: 174 µM; Km [12]: 114 µM; Km [13]: 75 µM; Km [14]: 33 µM
14 | B2 |  |  |  |  |  | Km [15]: 259 µM; Km [16]: 2.7 µM; Km [17]: 104 µM; Km [18]: 40 µM; Km [19]: 122 µM; Km [20]: 85 µM; Km [21]: 78 µM; Km [22]: 32 µM; Km [23]: 30 µM

— ChEMBL document CHEMBL1158545, “3'-(1,2,3-Triazol-1-yl)-3'-deoxythymidine analogs as substrates for human and Ureaplasma parvum thymidine kinase for structure-activity investigations” (Bioorg Med Chem, 2010)
